Test results taken from ChEMBL document CHEMBL3808302, “Novel Inhibitors of Toxin HipA Reduce Multidrug Tolerant Persisters” (ACS Med Chem Lett, 2016).
pEC50, pKd: −log10 of the molar value. The source made the active and inactive calls. No cut-off for these calls is given here.

Columns and labels:
[1] = tested on: T1, Serine/threonine-protein kinase toxin HipA (Escherichia coli (strain K12)), P23874 [D309Q]; assay: Binding affinity to Escherichia coli HipA D309Q mutant expressed in Escherichia coli BL21 (DE3) assessed as slow-on/fast-off type binding at 0.00015 to 8.75 uM by surface plasmon resonance assay
T1 sequence (whole entry): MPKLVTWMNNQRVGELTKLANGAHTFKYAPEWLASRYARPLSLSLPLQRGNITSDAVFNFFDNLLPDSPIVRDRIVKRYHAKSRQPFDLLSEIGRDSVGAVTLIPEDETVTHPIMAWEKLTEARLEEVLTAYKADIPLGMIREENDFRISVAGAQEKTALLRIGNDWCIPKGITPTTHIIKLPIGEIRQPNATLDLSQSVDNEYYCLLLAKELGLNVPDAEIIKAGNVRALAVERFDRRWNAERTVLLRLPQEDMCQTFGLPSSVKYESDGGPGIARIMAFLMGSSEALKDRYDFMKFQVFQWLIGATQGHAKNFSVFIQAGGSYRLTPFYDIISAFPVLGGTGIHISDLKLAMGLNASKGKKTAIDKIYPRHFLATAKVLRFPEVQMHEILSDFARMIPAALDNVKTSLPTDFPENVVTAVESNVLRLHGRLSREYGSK

Escherichia coli K-12 [2] = assay: (§1) Inhibition of HipA in Escherichia coli K-12 MG1655 assessed as reduction of persister fraction incubated for 8 hrs in presence of kanamycin
[3] = as §1
[4] = tested on: T1, Serine/threonine-protein kinase toxin HipA (Escherichia coli (strain K12)), P23874 [D309Q]; assay: Binding affinity to Escherichia coli HipA D309Q mutant expressed in Escherichia coli BL21 (DE3) assessed as slow-on/fast-off type binding at 3.125 to 87.5 uM by surface plasmon resonance assay
Escherichia coli K-12 [5] = assay: (§2) Inhibition of HipA in Escherichia coli K-12 MG1655 assessed as reduction of persister fraction incubated for 8 hrs in presence of ampicillin
[6] = as §2
[7] = tested on: T1, Serine/threonine-protein kinase toxin HipA (Escherichia coli (strain K12)), P23874 [D309Q]; assay: (§3) Binding affinity to Escherichia coli HipA D309Q mutant expressed in Escherichia coli BL21 (DE3) by surface plasmon resonance assay
[8] = biological target: Serine/threonine-protein kinase toxin HipA (Escherichia coli (strain K12), UniProt P23874, D309Q); assay: as §3
Escherichia coli K-12 [9] = assay: Inhibition of HipA in Escherichia coli K-12 MG1655 assessed as reduction of persister fraction at 250 uM incubated for 8 hrs in presence of ampicillin relative to control
Escherichia coli [10] = assay: Cytotoxicity against Escherichia coli K-12 MG1655 cells at 250 uM; type: organism-based
Escherichia coli K-12 [11] = assay: Inhibition of HipA in Escherichia coli K-12 MG1655 assessed as reduction of persister fraction incubated for 8 hrs in presence of kanamycin relative to control
[12] = tested on: T1, Serine/threonine-protein kinase toxin HipA (Escherichia coli (strain K12)), P23874 [D309Q]; assay: Binding affinity to Escherichia coli HipA D309Q mutant expressed in Escherichia coli BL21 (DE3) assessed as slow-on/slow-off type binding at 3.125 to 100 uM by surface plasmon resonance assay
Escherichia coli [13] = assay: Antipersistence effect in hipA knockout Escherichia coli assessed as reduction of persister fraction at 200 uM in presence of ampicillin; type: functional, organism-based
[14] = tested on: T1, Serine/threonine-protein kinase toxin HipA (Escherichia coli (strain K12)), P23874 [D309Q]; assay: Binding affinity to Escherichia coli HipA D309Q mutant expressed in Escherichia coli BL21 (DE3) assessed as fast-on/fast-off type binding at 6.25 to 100 uM by surface plasmon resonance assay

Compound	Activity [1]	inhibition (Escherichia coli K-12 [2])	pEC50 [3]	Activity [4]	inhibition (Escherichia coli K-12 [5])	pEC50 [6]	Activity [7]	pKd [8]	fold change (FC) (Escherichia coli K-12 [9])	Activity (Escherichia coli [10])	fold change (FC) (Escherichia coli K-12 [11])	Activity [12]	Activity (Escherichia coli [13])	Activity [14]
CCOC(=O)c1ccc(NC(=O)CSc2nnc(CSc3nc(C)cc(C)n3)o2)cc1	Active	Dose-dependent effect	4.37	Active	Dose-dependent effect	3.94	Dose-dependent effect	4.46	2	Non-toxic	3			
COc1cc(NC(=O)c2cc3nc(-c4ccc(F)cc4)cc(C)n3n2)cc([N+](=O)[O-])c1		Dose-dependent effect	4.00		Dose-dependent effect	4.08	Dose-dependent effect	4.37	5	Non-toxic	5	Active		
CCc1ccc(C2C(C(=O)c3ccc(OC)cc3)=C(O)C(=O)N2CCc2c[nH]c3ccccc23)cc1 (stereo not drawn)	Active	Dose-dependent effect	4.55	Active	Dose-dependent effect	4.34	Dose-dependent effect	6.57	5	Non-toxic	> 1		inactive	
CCN1CCN(CCNC(=O)c2cccc(Nc3cc(-c4ccccc4)ncn3)c2)CC1		Dose-dependent effect	3.95		Dose-dependent effect	3.90	Dose-dependent effect	4.27	5	Non-toxic	5			Active
